This note sets out measurements from US8906909B2 (Curis, Inc., priority 2009, dated 2014).

Series [1] relates to HDACs (HeLa cell nuclear extracts). In words: HDAC enzymatic activity, Biomol Color de Lys system. It is filed as biochemical. How it is done: (e) An In Vitro Assay which Determines the Ability of a Test Compound to Inhibit HDAC Enzymatic Activity.
HDAC inhibitory activity was assessed using the Biomol Color de Lys system (AK-500, Biomol, Plymouth Meeting, Pa.). Briefly, HeLa cell nuclear extracts were used as a source of HDACs. Different concentrations of test compounds were serially diluted in dimethylsulphoxide (DMSO) and added to HeLa cell nuclear extracts in the presence of a colorimetric artificial substrate. Final assay condition contained 50 mM Tris/Cl, pH 8.0, 137 mM NaCl, 2.7 mM KCl and 1 mM MgCl2. Reactions were carried in room temperature (25° C.) for 1 hour before addition of developer for termination. Relative enzyme activity was measured in the WALLAC Victor II 1420 microplate reader as floorescence intensity (excitation: 350-380 nm; emission: 440-460 nm). Data were analyzed using GraphPad Prism (v4.0a) with a sigmoidal dose response curve fitting for IC50 calculation.

In general, IC50 refers to the concentration that inhibits the measured activity by half. For orientation: melting point means the temperature of the solid-liquid transition. In the case of `CS(=O)(=O)N1CCN(Cc2cc3nc(-c4cccc5c4cnn5CCCCCCC(=O)NO)nc(N4CCOCC4)c3s2)CC1` [Compound 5, N-hydroxy-7-(4-(6-((4-(methylsulfonyl)piperazin-1-yl)methyl)-4-morpholinothieno[3,2-d]pyrimidin-2-yl)-1H-indazol-1-yl)heptanamide], the melting point is 127 to 130 °C. In series [1], the IC50 was less than 100 nM.

As to `CS(=O)(=O)N1CCN(Cc2cc3nc(-c4cccc5nn(CCCCC(=O)NO)cc45)nc(N4CCOCC4)c3s2)CC1` [Compound 7, N-hydroxy-5-(4-(6-((4-(methylsulfonyl)piperazin-1-yl)methyl)-4-morpholinothieno[3,2-d]pyrimidin-2-yl)-2H-indazol-2-yl)pentanamide], the melting point lay within 146 to 169 °C. Further, in series [1], the IC50 was 100 to 1000 nM.

`CS(=O)(=O)N1CCN(Cc2cc3nc(-c4cccc5nn(CCCCCC(=O)NO)cc45)nc(N4CCOCC4)c3s2)CC1` [Compound 8, N-hydroxy-6-(4-(6-((4-(methylsulfonyl)piperazin-1-yl)methyl)-4-morpholinothieno[3,2-d]pyrimidin-2-yl)-2H-indazol-2-yl)hexanamide] gave a melting point of 124 to 125 °C. Moreover, the IC50 in series [1] was less than 100 nM.

The compound `CS(=O)(=O)N1CCN(Cc2cc3nc(-c4cccc5nn(CCCCCCC(=O)NO)cc45)nc(N4CCOCC4)c3s2)CC1` [Compound 9, N-hydroxy-7-(4-(6-((4-(methylsulfonyl)piperazin-1-yl)methyl)-4-morpholinothieno[3,2-d]pyrimidin-2-yl)-2H-indazol-2-yl)heptanamide] came in with a melting point of 123 to 126 °C. Moreover, the IC50 in series [1] is less than 100 nM.

On to `O=C(CCCCN1CCN(Cc2cc3nc(-c4cccc5[nH]ncc45)nc(N4CCOCC4)c3s2)CC1)NO` [Compound 11, 5-(4-((2-(1H-indazol-4-yl)-4-morpholinothieno[3,2-d]pyrimidin-6-yl)methyl)piperazin-1-yl)-N-hydroxypentanamide], for which the melting point is 125 to 127 °C.

`COc1ccc(-c2nc(N3CCOCC3)c3sc(CN(C)c4ncc(C(=O)NO)cn4)cc3n2)cc1` [Compound 131, N-hydroxy-2-(((2-(4-methoxyphenyl)-4-morpholinothieno[3,2-d]pyrimidin-6-yl)methyl)(methyl)amino)pyrimidine-5-carboxamide]: the melting point was 247 °C (dec.).

Turning to `CC(=O)NCc1ccc(-c2nc(N3CCOCC3)c3sc(CN(C)c4ncc(C(=O)NO)cn4)cc3n2)cc1` [Compound 136, 2-(((2-(4-(acetamidomethyl)phenyl)-4-morpholinothieno[3,2-d]pyrimidin-6-yl)methyl)(methyl)amino)-N-hydroxypyrimidine-5-carboxamide], the melting point lay in the range of 178 to 180 °C.

Consider `Nc1ccc(-c2nc(N3CCOCC3)c3sc(CN(CCO)c4ncc(C(=O)NO)cn4)cc3n2)cc1F` [Compound 277], for which, in series [1], the IC50 is less than 100 nM.

In series [1], `CN(Cc1cc2nc(-c3ccc(N)cc3F)nc(N3CCOCC3)c2s1)c1ncc(C(=O)NO)cn1` [Compound 283, 2-{[2-(4-Amino-2-fluoro-phenyl)-4-morpholin-4-yl-thieno[3,2-d]pyrimidin-6-ylmethyl]-methyl-amino}-pyrimidine-5-carboxylic acid hydroxyamide] displayed an IC50 of less than 100 nM.

`CC(C)C(=O)Nc1ccc(-c2nc(N3CCOCC3)c3sc(CN(C)c4ncc(C(=O)NO)cn4)cc3n2)cc1` [Compound 286]: the IC50 in series [1] is less than 100 nM.

Regarding `CC(C)OC(=O)Nc1ccc(-c2nc(N3CCOCC3)c3sc(CN(C)c4ncc(C(=O)NO)cn4)cc3n2)cc1` [Compound 287], the IC50 in series [1] is less than 100 nM.

`CN(Cc1cc2nc(-c3cccc(NS(C)(=O)=O)c3)nc(N3CCOCC3)c2s1)c1ncc(C(=O)NO)cn1` [Compound 288] gave an IC50 in series [1] of less than 100 nM.

As to `CN(Cc1cc2nc(-c3cccc(S(=O)(=O)CCO)c3)nc(N3CCOCC3)c2s1)c1ncc(C(=O)NO)cn1` [Compound 291], the IC50 in series [1] was less than 100 nM.

The compound `C/C(=N/O)c1ccc(F)c(-c2nc(N3CCOCC3)c3sc(CN(C)c4ncc(C(=O)NO)cn4)cc3n2)c1` [Compound 298] gave a half-maximal inhibitory concentration (IC50) in series [1] of less than 100 nM.

On to `C/C(=N/O)c1cccc(-c2nc(N3CCOCC3)c3sc(CN(C)c4ncc(C(=O)NO)cn4)cc3n2)c1` [Compound 299], for which the IC50 in series [1] is less than 100 nM.

For `CC(=O)c1cccc(-c2nc(N3CCOCC3)c3sc(CN(C)c4ncc(C(=O)NO)cn4)cc3n2)c1` [Compound 300], in series [1], the IC50 is less than 100 nM.

As to `CC(=O)c1ccc(F)c(-c2nc(N3CCOCC3)c3sc(CN(C)c4ncc(C(=O)NO)cn4)cc3n2)c1` [Compound 301], in series [1], the IC50 was less than 100 nM.

The compound `CN(Cc1cc2nc(-c3cccc(C(C)(C)O)c3)nc(N3CCOCC3)c2s1)c1ncc(C(=O)NO)cn1` [Compound 302] returned an IC50 in series [1] of less than 100 nM.

For `Nc1ccc(-c2nc(N3CCOCC3)c3sc(S(=O)(=O)NCC4CCN(c5ncc(C(=O)NO)cn5)CC4)cc3n2)cc1` [Compound 309], in series [1], the IC50 is 100 to 1000 nM.

With `Cc1ncc(-c2nc(N3CCOCC3)c3sc(CN(C)c4ncc(C(=O)NO)cn4)cc3n2)s1` [Compound 311], the 50% inhibitory concentration (IC50) in series [1] is less than 100 nM.

`Cc1ncc(-c2nc(N3CCOCC3)c3sc(CN(CCO)c4ncc(C(=O)NO)cn4)cc3n2)s1` [Compound 312] had an IC50 in series [1] of less than 100 nM.

For `Cn1cc(-c2nc(N3CCOCC3)c3sc(CN(CCO)c4ncc(C(=O)NO)cn4)cc3n2)cn1` [Compound 313], the IC50 in series [1] is less than 100 nM.

Take `CN(Cc1cc2nc(-c3cccc4[nH]c(=O)[nH]c34)nc(N3CCOCC3)c2s1)c1ncc(C(=O)NO)cn1` [Compound 314]: the IC50 in series [1] is less than 100 nM.

In series [1], `CN(Cc1cc2nc(-c3cccc4[nH]c(=S)[nH]c34)nc(N3CCOCC3)c2s1)c1ncc(C(=O)NO)cn1` [Compound 315] yielded an IC50 of less than 100 nM.

Consider `CN(Cc1cc2nc(-c3cccc4[nH]c(=O)sc34)nc(N3CCOCC3)c2s1)c1ncc(C(=O)NO)cn1` [Compound 317], for which, in series [1], the half-inhibitory concentration (IC50) was less than 100 nM.

Turning to `CCCc1nc2cc(/C=C/C(=O)NO)ccc2n1CCN(C)Cc1cc2nc(-c3ccc(NC)nc3)nc(N3CCOCC3)c2s1` [Compound 322], the IC50 in series [1] fell in the range of 100 to 1000 nM.

`CCCc1nc2cc(/C=C/C(=O)NO)ccc2n1CCNCc1cc2nc(-c3ccc(NC)nc3)nc(N3CCOCC3)c2s1` [Compound 323] had an IC50 in series [1] of 100 to 1000 nM.

`CCCc1nc2cc(/C=C/C(=O)NO)ccc2n1CCN(C)Cc1cc2nc(-c3ccc(N)cc3)nc(N3CCOCC3)c2s1` [Compound 324]: in series [1], the IC50 was in the range of 100 to 1000 nM.

As for `CCCc1nc2cc(/C=C/C(=O)NO)ccc2n1CCNCc1cc2nc(-c3ccc(N)cc3)nc(N3CCOCC3)c2s1` [Compound 325], the IC50 in series [1] fell in the range of 100 to 1000 nM.

`Cn1c(CNCc2cc3nc(-c4ccc(N)cc4)nc(N4CCOCC4)c3s2)nc2cc(/C=C/C(=O)NO)ccc21` [Compound 326]: the IC50 in series [1] was 100 to 1000 nM.

Take `CN(Cc1cc2nc(-c3ccc(N)cc3)nc(N3CCOCC3)c2s1)Cc1nc2cc(/C=C/C(=O)NO)ccc2n1C` [Compound 327]: the IC50 in series [1] was 100 to 1000 nM.

On to `CNc1ccc(-c2nc(N3CCOCC3)c3sc(CNCc4nc5cc(/C=C/C(=O)NO)ccc5n4C)cc3n2)cn1` [Compound 328], for which the IC50 in series [1] fell in the range of 100 to 1000 nM.

In turn, `CNc1ccc(-c2nc(N3CCOCC3)c3sc(CN(C)Cc4nc5cc(/C=C/C(=O)NO)ccc5n4C)cc3n2)cn1` [Compound 329] registered an IC50 in series [1] of 100 to 1000 nM.
